Values of other authors in US20080166330A1, “Bacterial Compositions For Prevention Or Treatment Of Atherosclerotic Disorders” (priority 2004, published 2008).

Tested on: anti-Chlamydia abzymes
Settings: general statement of the description, no test details

CC[C@H]1OC(=O)[C@H](C)[C@@H](O[C@H]2C[C@@](C)(OC)[C@@H](O)[C@H](C)O2)[C@H](C)[C@@H](O[C@@H]2O[C@H](C)C[C@H](N(C)C)[C@H]2O)[C@](C)(O)C[C@@H](C)CN(C)[C@H](C)[C@@H](O)[C@]1(C)O [azithromycin]
inhibition of abzyme activity: inhibit abzyme activity
